Values joined by “and” are separate entries in the source; they are usually repeats but may differ in a detail not shown here. Equal values may be shown once. Toxic doses and inconclusive results are not listed.
System: BDF1 mice, P388 leukemia ip, median survival T/C
Experiment: NCI In Vivo Anticancer Drug Screen. Data for tumor model P388 Leukemia (intraperitoneal) in B6D2F1 (BDF1) mice
Settings: endpoint: median survival time, higher = longer survival
How it was run: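 Reported as T/C, where T is the survival measurement in dosed animals and C the same measurement in vehicle controls.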

[1] = dose: 200.0 mg/kg/injection, schedule: Q01DX009 (ip), vehicle: saline with Tween-80
[2] = dose: 100.0 mg/kg/injection, schedule: Q04DX003 (ip), vehicle: Klucel (hydroxypropylcellulose) (HPC)
[3] = dose: 200.0 mg/kg/injection, schedule: Q04DX003 (ip), vehicle: Klucel (hydroxypropylcellulose) (HPC)
[4] = dose: 400.0 mg/kg/injection, schedule: Q04DX003 (ip), vehicle: Klucel (hydroxypropylcellulose) (HPC)
[5] = dose: 50.0 mg/kg/injection, schedule: Q01DX009 (ip), vehicle: Klucel (hydroxypropylcellulose) (HPC)
[6] = dose: 100.0 mg/kg/injection, schedule: Q01DX009 (ip), vehicle: Klucel (hydroxypropylcellulose) (HPC)
[7] = dose: 100.0 mg/kg/injection, schedule: Q01DX009 (ip), vehicle: saline with Tween-80
[8] = dose: 100.0 mg/kg/injection, schedule: Q04DX003 (ip), vehicle: saline with Tween-80
[9] = dose: 200.0 mg/kg/injection, schedule: Q04DX003 (ip), vehicle: saline with Tween-80
[10] = dose: 400.0 mg/kg/injection, schedule: Q04DX003 (ip), vehicle: saline with Tween-80
[11] = dose: 50.0 mg/kg/injection, schedule: Q01DX009 (ip), vehicle: saline with Tween-80
[12] = dose: 400.0 mg/kg/injection, schedule: Q01DX009 (ip), vehicle: saline with Tween-80
[13] = dose: 200.0 mg/kg/injection, schedule: Q01DX009 (ip), vehicle: Klucel (hydroxypropylcellulose) (HPC)

CC(CS(=O)(=O)O)N1CCOCC1 (stereo unspecified)
T/C (dose: 100.0 mg/kg/injection, schedule: Q01DX009 (ip), vehicle: saline): 91 % of control | T/C (dose: 100.0 mg/kg/injection, schedule: Q04DX003 (ip), vehicle: saline): 104 % of control | T/C (dose: 200.0 mg/kg/injection, schedule: Q01DX009 (ip), vehicle: saline): 104 % of control | T/C (dose: 200.0 mg/kg/injection, schedule: Q04DX003 (ip), vehicle: saline): 100 % of control | T/C (dose: 400.0 mg/kg/injection, schedule: Q04DX003 (ip), vehicle: saline): 95 % of control

CC1(C)COCN1COC1CCCCC1
T/C [1]: 90 % of control

CCCCCCCCCCCCO[P+](=O)OCCCCCCCCCCCC
T/C (dose: 200.0 mg/kg/injection, schedule: Q04DX003 (ip), vehicle: saline sonified): 100 % of control | T/C (dose: 400.0 mg/kg/injection, schedule: Q04DX003 (ip), vehicle: saline sonified): 100 % of control

CCCCCCCC(O)CCC (stereo unspecified)
T/C [2]: 108 % of control | T/C [3]: 100 % of control | T/C [4]: 87 % of control

CCCCCCCCCCCC[S+](C)C
T/C (dose: 10.0 mg/kg/injection, schedule: Q01DX010 (ip), vehicle: saline): 116 % of control | T/C (dose: 10.0 mg/kg/injection, schedule: Q04DX003 (ip), vehicle: saline): 120 % of control | T/C (dose: 20.0 mg/kg/injection, schedule: Q01DX010 (ip), vehicle: saline): 112 % of control | T/C (dose: 20.0 mg/kg/injection, schedule: Q04DX003 (ip), vehicle: saline): 120 % of control

Clc1ccc(NC2=NCCN=C(Nc3ccc(Cl)cc3)SS2)cc1
T/C [5]: 91 % of control | T/C [6]: 91 % of control

O=C(O)C1CC(c2ccccc2)OC1=O (stereo unspecified)
T/C (dose: 100.0 mg/kg/injection, schedule: Q01DX009 (ip), vehicle: gum acacia): 92 % of control | T/C (dose: 100.0 mg/kg/injection, schedule: Q04DX003 (ip), vehicle: gum acacia): 100 % of control | T/C (dose: 200.0 mg/kg/injection, schedule: Q01DX009 (ip), vehicle: gum acacia): 92 % of control | T/C (dose: 200.0 mg/kg/injection, schedule: Q04DX003 (ip), vehicle: gum acacia): 104 % of control | T/C (dose: 400.0 mg/kg/injection, schedule: Q04DX003 (ip), vehicle: gum acacia): 108 % of control

COc1ccc(CSc2ncnc3nc[nH]c23)cc1
T/C [7]: 95 % of control | T/C [8]: 100 % of control | T/C [9]: 100 % of control | T/C [10]: 87 % of control

C(/C=N/N(c1ccccc1)c1ccccc1)=N\N(c1ccccc1)c1ccccc1
T/C [2]: 100 % of control | T/C [3]: 104 % of control | T/C [4]: 104 % of control

CC(=O)O[C@]1(C(C)=O)CC[C@H]2[C@@H]3C[C@H](F)C4=CC(=O)CC[C@]4(C)[C@H]3CC[C@@]21C
T/C (dose: 12.5 mg/kg/injection, schedule: Q01DX009 (ip), vehicle: Klucel (hydroxypropylcellulose) (HPC)): 109 % of control | T/C (dose: 25.0 mg/kg/injection, schedule: Q01DX009 (ip), vehicle: Klucel (hydroxypropylcellulose) (HPC)): 100 % of control | T/C [5]: 100 % of control | T/C [6]: 87 % of control | T/C (dose: 100.0 mg/kg/injection, schedule: Q04DX003 (ip), vehicle: alcohol): 100 % of control | T/C (dose: 200.0 mg/kg/injection, schedule: Q04DX003 (ip), vehicle: alcohol): 105 % of control | T/C (dose: 400.0 mg/kg/injection, schedule: Q04DX003 (ip), vehicle: alcohol): 110 % of control

C[C@H](CCC[C@H](C)OS(=O)(=O)c1ccccc1)OS(=O)(=O)c1ccccc1
T/C (dose: 25.0 mg/kg/injection, schedule: Q01DX009 (ip), vehicle: saline with Tween-80): 117 % of control | T/C [11]: 99 % of control and 116 % of control | T/C [7]: 155 % of control | T/C [1]: 156 % of control and 180 % of control | T/C [12]: 182 % of control

CC(C)(C)OC(=O)NNC(=O)c1ccc([N+](=O)[O-])cc1
T/C [5]: 90 % of control | T/C [13]: 95 % of control

CCOc1c(Br)cc(Br)cc1C=O
T/C [7]: 104 % of control | T/C [8]: 109 % of control | T/C [1]: 113 % of control | T/C [9]: 109 % of control | T/C [12]: 100 % of control | T/C [10]: 95 % of control

O=C1c2ccccc2-c2cc(-c3ccccc3)cc(-c3ccccc3)c21
T/C [2]: 100 % of control | T/C [3]: 100 % of control | T/C [4]: 100 % of control

CC=NC(C[S-])C(=O)O.CC=NC(C[S-])C(=O)O.[Fe+2] (stereo unspecified)
T/C [11]: 110 % of control | T/C [7]: 100 % of control and 105 % of control | T/C [1]: 100 % of control and 104 % of control

OC1c2ccccc2C=Cc2ccccc21
T/C (dose: 25.0 mg/kg/injection, schedule: Q01DX001 (ip), vehicle: saline sonified): 104 % of control | T/C (dose: 50.0 mg/kg/injection, schedule: Q01DX001 (ip), vehicle: saline sonified): 104 % of control | T/C (dose: 100.0 mg/kg/injection, schedule: Q01DX001 (ip), vehicle: saline sonified): 100 % of control

CCOC(=O)c1ccc(NS(=O)c2ccccc2)cc1 (stereo unspecified)
T/C [11]: 100 % of control | T/C [7]: 93 % of control | T/C [1]: 111 % of control

CCOC(=O)NC(CC)CO (stereo unspecified)
T/C [6]: 100 % of control | T/C [13]: 95 % of control | T/C (dose: 400.0 mg/kg/injection, schedule: Q01DX009 (ip), vehicle: Klucel (hydroxypropylcellulose) (HPC)): 90 % of control

CCCCCCCCN(c1ccc(I)cc1)S(=O)(=O)c1ccc(C)cc1
T/C (dose: 50.0 mg/kg/injection, schedule: Q04DX003 (ip), vehicle: saline with Tween-80): 111 % of control | T/C [8]: 111 % of control

Reference: PubChem BioAssay AID328 (DTP/NCI, 2004)
